US9499553B2 (CHUGAI SEIYAKU KABUSHIKI KAISHA, priority 2013, dated 2016)
Like-named read-outs stand apart in the source and are kept apart here.

Key:
Type in all cases: cell-based
human PiT-2 = molecular target: T1, human PiT-2 (Homo sapiens, UniProt Q08357); test: Inhibitory effect on 33PO4 uptake into human PiT-2-expressing CHO cells; settings: pH 6.5, read-out: IC50 against 33PO4 uptake into human PiT-2-expressing cells
T1 construct: expressed in transfected cells; host or cells: CHO cells
T1 sequence (Q08357 1-652): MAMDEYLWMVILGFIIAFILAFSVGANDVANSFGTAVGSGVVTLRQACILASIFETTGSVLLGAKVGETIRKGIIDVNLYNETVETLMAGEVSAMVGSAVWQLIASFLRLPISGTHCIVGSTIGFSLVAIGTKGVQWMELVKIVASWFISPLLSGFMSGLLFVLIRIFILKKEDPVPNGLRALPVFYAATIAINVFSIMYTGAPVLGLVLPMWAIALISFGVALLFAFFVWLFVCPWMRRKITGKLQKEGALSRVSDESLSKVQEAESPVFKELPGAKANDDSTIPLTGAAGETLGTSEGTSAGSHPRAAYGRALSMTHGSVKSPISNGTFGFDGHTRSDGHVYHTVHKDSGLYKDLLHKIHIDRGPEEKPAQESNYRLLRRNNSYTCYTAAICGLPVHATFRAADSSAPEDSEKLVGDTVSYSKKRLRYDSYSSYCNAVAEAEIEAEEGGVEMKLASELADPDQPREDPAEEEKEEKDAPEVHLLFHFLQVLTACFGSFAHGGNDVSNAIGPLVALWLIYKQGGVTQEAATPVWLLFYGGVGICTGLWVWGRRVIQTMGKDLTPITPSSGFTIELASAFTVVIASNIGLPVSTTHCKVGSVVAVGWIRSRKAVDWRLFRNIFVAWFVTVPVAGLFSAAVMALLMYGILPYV
Experimental: Test Example 4: Inhibitory Effect on ^33PO4 Uptake into Human PiT-2-Expressing Cell
(§1) CHO cells were transfected with human PiT-2 expression plasmids or empty vectors to prepare human PiT-2-expressing cells and empty vector-expressing cells. The human PiT-2-expressing cells or the empty vector-expressing cells were inoculated to a 96-well plate and incubated overnight in a CO2 incubator. […] After a given time, a 1/20 volume of buffer A containing ^33PO4 was added thereto and reacted at room temperature. After washing with ice-cold buffer A, a liquid scintillator was added to each reaction mixture, and the amount of ^33PO4 uptake was measured using TopCount. The rate of inhibition was determined according to the following expression: Rate (%) of inhibition=(1−(Amount of ^33PO4 uptake in the compound-supplemented well containing the human PiT-2-expressing cells−Amount of ^33PO4 uptake in the compound-supplemented well containing the empty vector-expressing cells)/(Amount of ^33PO4 uptake in the DMSO-supplemented well containing the human PiT-2-expressing cells −Amount of ^33PO4 uptake in the DMSO-supplemented well containing the empty vector-expressing cells))×100

human NaPi-IIb = molecular target: T2, human NaPi-IIb (Homo sapiens, UniProt O95436); test: Inhibitory effect on 33PO4 uptake into human NaPi-IIb-expressing CHO cells
T2 construct: expressed in transfected cells
T2 sequence (O95436 1-690): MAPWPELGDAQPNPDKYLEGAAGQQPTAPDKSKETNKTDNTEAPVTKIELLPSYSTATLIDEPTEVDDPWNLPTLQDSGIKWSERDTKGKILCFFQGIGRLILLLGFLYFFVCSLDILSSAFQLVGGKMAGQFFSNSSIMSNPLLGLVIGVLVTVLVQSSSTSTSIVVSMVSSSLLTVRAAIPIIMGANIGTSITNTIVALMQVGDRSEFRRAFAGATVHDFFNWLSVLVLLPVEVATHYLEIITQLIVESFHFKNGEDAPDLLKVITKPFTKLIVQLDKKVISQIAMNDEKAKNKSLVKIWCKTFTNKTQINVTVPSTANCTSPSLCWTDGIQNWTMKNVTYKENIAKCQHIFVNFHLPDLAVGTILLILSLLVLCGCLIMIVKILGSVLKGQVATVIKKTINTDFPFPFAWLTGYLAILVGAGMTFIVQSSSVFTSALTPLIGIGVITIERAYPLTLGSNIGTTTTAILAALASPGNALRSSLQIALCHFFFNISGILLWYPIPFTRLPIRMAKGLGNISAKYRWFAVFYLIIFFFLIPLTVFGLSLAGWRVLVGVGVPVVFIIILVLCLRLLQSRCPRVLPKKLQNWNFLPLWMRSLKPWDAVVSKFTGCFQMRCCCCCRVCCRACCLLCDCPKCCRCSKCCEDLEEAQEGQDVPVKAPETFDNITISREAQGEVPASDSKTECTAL
Outline: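 Stable human NaPi-IIb CHO line (G418-selected), plated and cultured overnight; ³³PO4 added in buffer A and uptake run at room temperature. Cells washed with ice-cold buffer A, then uptake counted by liquid scintillation.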

human PiT-1 = molecular target: T3, human PiT-1 (Homo sapiens, UniProt Q8WUM9); test: Inhibitory effect on 33PO4 uptake into human PiT-1-expressing CHO cells; settings: compound 0.24, 1.2, 6 or 30 μM, pH 6.5, read-out: IC50 against 33PO4 uptake into human PiT-1-expressing cells
T3 construct: expressed in transfected cells; host or cells: CHO cells
T3 sequence (Q8WUM9 1-679): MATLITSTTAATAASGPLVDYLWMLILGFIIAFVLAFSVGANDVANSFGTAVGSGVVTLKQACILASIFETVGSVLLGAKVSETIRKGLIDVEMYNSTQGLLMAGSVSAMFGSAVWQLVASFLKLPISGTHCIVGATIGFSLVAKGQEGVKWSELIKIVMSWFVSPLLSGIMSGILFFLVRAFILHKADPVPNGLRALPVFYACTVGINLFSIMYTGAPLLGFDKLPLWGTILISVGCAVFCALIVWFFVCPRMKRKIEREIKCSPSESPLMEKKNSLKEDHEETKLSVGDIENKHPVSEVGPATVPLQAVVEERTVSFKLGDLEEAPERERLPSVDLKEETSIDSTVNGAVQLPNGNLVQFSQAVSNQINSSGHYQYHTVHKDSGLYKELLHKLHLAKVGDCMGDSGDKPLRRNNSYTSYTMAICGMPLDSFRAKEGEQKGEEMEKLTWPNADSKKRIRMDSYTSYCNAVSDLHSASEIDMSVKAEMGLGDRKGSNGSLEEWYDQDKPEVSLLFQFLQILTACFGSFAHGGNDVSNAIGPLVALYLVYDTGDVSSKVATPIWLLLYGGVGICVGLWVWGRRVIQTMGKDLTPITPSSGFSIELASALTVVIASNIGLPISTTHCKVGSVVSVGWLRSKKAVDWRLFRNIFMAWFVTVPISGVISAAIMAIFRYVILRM
Experimental: Test Example 3: Inhibitory Effect on ^33PO4 Uptake into Human PiT-1-Expressing Cell
as §1, with “PiT-1” for “PiT-2”, “PiT-1-expressing” for “PiT-2-expressing”

[1] = read-out: IC50 against 33PO4 uptake into human NaPi-IIb-expressing cells

| IC50 (human PiT-2) | IC50 (human PiT-1) | IC50 (human NaPi-IIb; read-out: IC50) | Compound | IC50 (human NaPi-IIb; [1]) |
| --- | --- | --- | --- | --- |
| 7.2 µM | 3.9 µM | 3.2 µM | C[C@]12CCCN1N(Cc1ccc(OCCCCCCOC[C@H](O)CO)c(F)c1F)C(=O)C(C(=O)Nc1cnc(C(F)(F)F)nc1-c1ccc(C(F)(F)F)nc1)=C2O [Example 156, (4aR)-1-[[4-[6-[(2R)-2,3-Dihydroxypropoxy]hexoxy]-2,3-difluorophenyl]methyl]-4-hydroxy-4a-methyl-2-oxo-N-[2-(trifluoromethyl)-4-[6-(trifluoromethyl)pyridin-3-yl]pyrimidin-5-yl]-6,7-dihydro-5H-pyrrolo[1,2-b]pyridazine-3-carboxamide] | – |
| 3.8 µM | 3.8 µM | 16.2 µM | C[C@]12CCCN1N(Cc1ccc(C#CCN3CCOCC3)c(F)c1F)C(=O)C(C(=O)Nc1ccc(C(F)(F)F)cc1-c1ccc(C(F)(F)F)nc1)=C2O [Example 140, (4aR)-1-[[2,3-Difluoro-4-(3-morpholin-4-ylprop-1-ynyl)phenyl]methyl]-4-hydroxy-4a-methyl-2-oxo-N-[4-(trifluoromethyl)-2-[6-(tri-fluoromethyl)pyridin-3-yl]phenyl]-6,7-dihydro-5H-pyrrolo[1,2-b]pyridazine-3-carboxamide] | – |
| 8.4 µM | 4.4 µM | 21.5 µM | C[C@]12CCCN1N(Cc1ccc(OCCCOC[C@H](O)CO)c(F)c1F)C(=O)C(C(=O)Nc1ccc(C(F)(F)F)cc1-c1ccc(C(F)(F)F)nc1)=C2O [Example 147, (4aR)-1-[[4-[3-[(2R)-2,3-Dihydroxypropoxy)propoxy]-2,3-difluorophenyl]methyl]-4-hydroxy-4a-methyl-2-oxo-N-[4-(trifluoromethyl)-2-[6-(trifluoromethyl)pyridin-3-yl]phenyl]-6,7-dihydro-5H-pyrrolo [1,2-b]pyridazine-3-carboxamide] | – |

Continued, molecule first:

| Compound | IC50 (human PiT-2) | IC50 (human PiT-1) | IC50 (human NaPi-IIb; read-out: IC50) | IC50 (human NaPi-IIb; [1]) |
| --- | --- | --- | --- | --- |
| CN(C)CC(C)(C)COc1ccc(CN2C(=O)C(C(=O)Nc3ccc(C(F)(F)F)cc3-c3cc(C(F)(F)F)ncn3)=C(O)C3(CCCC3)N2C)c(F)c1F [Example 414, 7-(4-(3-(Dimethylamino)-2,2-dimethylpropoxy)-2,3-difluorobenzyl)-10-hydroxy-6-methyl-8-oxo-N-(4-(tri-fluoromethyl)-2-(6-(trifluoromethyl)pyrimidin-4-yl)phenyl)-6,7-diazaspiro [4.5]dec-9-ene-9-carboxamide] | 1.2 µM | 1.9 µM | – | 4.6 µM |
| C[C@]12CCCN1N(Cc1ccc(OCCCCOC[C@H](O)CO)c(F)c1F)C(=O)C(C(=O)Nc1ccc(C(F)(F)F)cc1-c1cc(C(F)(F)F)ncn1)=C2O [Example 152, (4aR)-1-[[4-[4-[(2R)-2,3-Dihydroxypropoxy]butoxy]-2,3-difluorophenyl]methyl]-4-hydroxy-4a-methyl-2-oxo-N-[4-(trifluoromethyl)-2-[6-(trifluoromethyl)pyrimidin-4-yl]phenyl]-6,7-dihydro-5H-pyrrolo [1,2-b]pyridazine-3-carboxamide] | 3.5 µM | 5.3 µM | 20.6 µM | – |
| C[C@]12CCCN1N(Cc1ccc(OCCN3CCOCC3)c(F)c1F)C(=O)C(C(=O)Nc1ccc(C(F)(F)F)cc1-c1cc(C(F)(F)F)ncn1)=C2O [Example 157, (4aR)-1-[[2,3-Difluoro-4-(2-morpholin-4-ylethoxy)phenyl]methyl]-4-hydroxy-4a-methyl-2-oxo-N-[4-(trifluoromethyl)-2-[6-(trifluoromethyl)pyrimidin-4-yl]phenyl]-6,7-dihydro-5H-pyrrolo [1,2-b]pyridazine-3-carboxamide] | 3.9 µM | 3.8 µM | 19.1 µM | – |
| CN1[C@@H](C(C)(C)C)C(O)=C(C(=O)Nc2ccc(Cl)cc2-c2ccc(C(F)(F)F)nc2)C(=O)N1Cc1ccc(OCCN2CCOCC2)c(F)c1F [Example 267, (3S)-3-tert-Butyl-N-[4-chloro-2-[6-(trifluoromethyl)pyridin-3-yl]phenyl]-1-[[2,3-difluoro-4-(2-morpholin-4-ylethoxy)phenyl]methyl]-4-hydroxy-2-methyl-6-oxo-3H-pyridazine-5-carboxamide] | 4.7 µM | 4.1 µM | 7.5 µM | – |
| CN1N(Cc2ccc(OCCCCC(=O)O)c(F)c2F)C(=O)C(C(=O)Nc2ccc(C(F)(F)F)cc2-c2cc(C(F)(F)F)ncn2)=C(O)C12CCCC2 [Example 333, 5-[2,3-Difluoro-4-[[10-hydroxy-6-methyl-8-oxo-9-[[4-(trifluoromethyl)-2-[6-(trifluoromethyl)pyrimidin-4-yl]phenyl]carbamoyl]-6,7-diazaspiro[4.5]dec-9-en-7-yl]methyl]phenoxy]pentanoic acid] | 10.4 µM | 3.6 µM | 19.5 µM | – |
| CN(C[C@H](O)[C@@H](O)[C@H](O)[C@H](O)CO)C(=O)CCCOc1ccc(CN2C(=O)C(C(=O)Nc3ccc(C(F)(F)F)cc3-c3cc(C(F)(F)F)ncn3)=C(O)C3(CCCC3)N2C)c(F)c1F [Example 418, 7-[[2,3-Difluoro-4-[4-[methyl-[(2S,3R,4R,5R)-2,3,4,5,6-penta-hydroxyhexyl]amino]-4-oxobutoxy]phenyl]methyl]-10-hydroxy-6-methyl-8-oxo-N-[4-(trifluoromethyl)-2-[6-(trifluoromethyl)pyrimidin-4-yl]phenyl]-6,7-diazaspiro[4.5]dec-9-ene-9-carboxamide] | 4.6 µM | 4.1 µM | – | 10.9 µM |
